# “Also recorded” adds a separate entry of the source. Read-outs that look alike come from different tables or passages of the source. Ends that are not written are not given here.
# Columns and labels:
# [1] = biological target: T1, uPA1–48:uPAR complexes binding to vitronectin (Homo sapiens, UniProt Q03405); experiment: Vitronectin binding assay (ELISA); details: 20 nM biotinylated suPAR, 20 nM uPA1–48
# T1 construct: sUPAR, soluble truncated form of the urokinase receptor; made in house; host or cells: suPAR: baculovirus-infected Sf9 cells; uPA1-48: recombinant yeast; vitronectin: purified from human plasma
# Method: Vitronectin was purified from human plasma by the method of Yatohgo et al, Cello Struct.and Funct. 13: 281–292 (1988). Purified vitronectin was diluted to 20 μg/ml in PBS containing 1 mM CaCl2 and 0.5 mM MgCl2, dispensed at 50 μl/well into Immulon II wells (Dynatech, Chantilly, Va.), incubated overnight at 4° C. and washed with PBS/BSA. Biotinylated sUPAR was diluted to 20 nM in PBS/BSA, incubated with or without test ligand for 30 minutes at room temperature (22° C.), dispensed at 100 μl/well and incubated for 90 minutes. Wells were then washed and horseradish peroxidase (HRP)-conjugated streptavidin was added at 0.4 μg/ml in PBS/2% BSA for 1 hour followed by washing and addition of 100 μl/well TMB substrate. The color development was stopped with 100 μl of 0.8N H2SO4 and the absorbance at 450 nm measured in a 96 well plate reader (Dynatech, Chantilly, Va.). Antagonistic effects of test ligands were measured as described above except the ligands were incubated with 20 nM biotinylated suPAR in the presence of 20 nM uPA1–48.
# In order to analyze the effects of the various peptide ligands on the uPAR:vitronectin interaction, we developed an in vitro ELISA based assay for this interaction, in which biotinylated suPAR and uPA1–48 bind to immobilized, urea purified vitronectin, and the bound sUPAR is detected with HRP conjugated streptavidin. Under the conditions of the assay binding of biotinylated uPAR to vitronectin is strictly dependent on uPA1–48, as shown in FIG. 1.
# [2] = biological target: T2, uPA1–48:suPAR complex (Homo sapiens, UniProt Q03405); experiment: Bacteriophage 7 and 18 binding to uPA1–48:suPAR complex in presence of vitronectin; details: clone 7 and 18 bacteriophage
# T2 construct: sUPAR, soluble truncated form of the urokinase receptor; made in house; host or cells: suPAR: baculovirus-infected Sf9 cells; uPA1-48: recombinant yeast
# Method: The ability of the various bacteriophage derived peptides to affect binding of uPA1–48:uPAR complexes to vitronectin was assessed in the ELISA assay. Two classes of peptides were effective antagonists in this assay. […] None of the peptides when tested alone increased the binding of biotinylated suPAR to vitronectin. […] In order to test whether the clone 7 and 18 peptides bound directly at the vitronectin binding site on uPAR, and inhibited vitronectin binding by uPAR:uPA1–48 by direct competition for that site, the inventors examined the effects of vitronectin on the binding of these bacteriophage. Vitronectin reduced bacteriophage binding to the uPA1–48:suPAR complex by 5–10 fold, consistent with the hypothesis that these peptides mimic vitronectin as a uPAR ligand.
# [3] = biological target: T3, suPAR (Homo sapiens, UniProt Q03405); experiment: suPAR binding assay (competition for uPA1–48 binding); details: synthetic peptide
# T3 construct: sUPAR, soluble truncated form of the urokinase receptor; made in house; host or cells: baculovirus-infected Sf9 insect cells
# Method: Twenty-eight independent bacteriophage were isolated and the random peptide encoding DNA segments sequenced. […] This is in contrast to previous results of affinity selection on uPAR alone, where the majority of selected bacteriophage bound with substantial yield as described in Goodson et al, Proc.Natl.Acad.Sci. USA 91: 7129–7133 (1994). The yields of these four bacteriophage were determined on suPAR in the presence and absence of uPA1–48. In addition, the encoded peptides were synthesized and tested as competitors in a suPAR binding assay as described in Stratton-Thomas et al, Prot.Eng. 8: 463–470 (1995), and Kaufman et al Anal.Biochem. 211: 261–266 (1993).
# [4] = biological target: T4, sUPAR domain 2–3 (D23) (Homo sapiens, UniProt Q03405); experiment: Bacteriophage binding to sUPAR domain 2/3; details: phage-displayed peptide
# T4 construct: domains 2 and 3 (amino acids 93–313); made in house; host or cells: baculovirus infected Sf9 insect cells
# Method: FIG. 5. Bacteriophage binding to sUPAR domain 2/3. Phage were added to wells containing sUPAR domain 2/3 immobilized by its epitope tag via protein G and monoclonal antibody to the epitope tag. Wells containing protein G and antibody but no domain 2/3 were included to determine nonspecific phage binding. Urea-eluted phage and the input stocks were titered by plaque formation assay. Results were single point determinations calculated as a percent of the input titer and were repeated in three separate experiments.
# It was also shown by the inventors that bacteriophage bound to sUPAR domain 2–3fragment. Protein G, 100μl, 1 mg/ml in 50 mM Na2CO3, pH9.6, was added to MaxiSorp wells, incubated overnight at 4° C. and then washed with PBS/BSA. Fifty μl of monoclonal antibody to the epitope tag EYMPME (SEQ ID NO: 18) was added at 1 mg/ml in PBS/BSA and incubated for 2 hours at room temperature. The wells were washed, recombinant sUPAR domain 2–3 (1.7 μM in PBS/BSA) was added and incubated for 1.5 hours at room temperature. The wells were washed prior to the addition of bacteriophage (approximately 10^8 pfu), and then treated as described in the previous section for binding to suPAR.
# [5] = biological target: T5, uPAR (Homo sapiens, UniProt Q03405); experiment: IC 50 (uM)^2
# T5 construct: sUPAR, soluble truncated form of the urokinase receptor; made in house; host or cells: baculovirus-infected Sf9 insect cells
# Method: Table printed on a drawing sheet, FIG. 6
# Head of the field: IC 50 (uM)^2
# The patent's description of the figure: FIG 6: Table. The table of FIG 6 depicts the sequences (SEQ ID NOS:12–17), phage yields, and IC50s in uPAR binding assays for selected phage peptides. Legend: 1. Individual phage were incubated with biotinylated suPAR with and without 10 μM uPA1–48 on streptavidin coated wells as described herein. The background yields of all phage without SuPAR in the wells ranged from 0.002–0.025%. Errors in yield are in the range 50%. 2. Apparent inhibition constant of the synthetic peptide in the uPAR receptor binding assay; errors are in the range of 20%. 3. NT=not determined because of peptide insolubility. 4. Clone 20 and 13–32 peptides were as described previously.
# First copying reader's note: The head is printed shifted: 'Phage Yield' covers the -1-48 and +1-48 columns and 'IC 50 (uM)' belongs to the last column; the raised marks 1-4 refer to a legend that is not printed on the sheet.
# Where the first naming reader finds the target: description_of_the_figure: IC50s in uPAR binding assays for selected phage peptides
# [6] = test system: nontransfected 293 cells; experiment: Adhesion of nontransfected 293 cells to fibronectin or collagen; format: cell-based; details: recombinant soluble uPAR added, dose dependent
# Text: To explore whether uPAR binds to integrins, nontransfected 293 cells were allowed to adhere to fibronectin or collagen in the presence of recombinant soluble uPAR (suPAR).
# [7] = test system: uPAR mediated adhesion of stimulated U937 cells; experiment: Adhesion of stimulated U937 cells to vitronectin; format: cell-based
# Text: Previous results had shown that vitronectin binding by uPAR correlated with cell adhesion of stimulated U937 cells as described in Wei et al, J. Biol. Chem. 269: 32380–32388 (1994). It was found also that clone 7 peptide could block uPAR mediated adhesion of these cells, whereas the scrambled version of the same peptide had no effect.
# [8] = biological target: T3, suPAR; experiment: SuPAR:1-anilino-8-napthalenesulfonate (ANS) fluorescence; format: binding; details: 2 μM sUPAR, 10 μM ANS, 0 to 20 μM competitor
# Method: Determination of the effect of various peptide ligands on sUPAR/ANS fluorescence was performed following a procedure similar to that of Ploug et al, Biochem. 33: 8991–8997 (1994). Fluorescence emission spectra of sUPAR/ANS solutions with or without competitors were obtained using an Hitachi F-4500 fluorescence spectrophotometer with an excitation wavelength of 386 nm, 5-nm band-pass excitation and emission slits, and a 10 mm path length quartz cuvette. The emission spectra from 400 to 600 nm were recorded. For competition measurements, dilutions of a stock sUPAR/ANS solution were made to give individual 0.5 ml aliquots with a final concentration of 2 μM sUPAR, 10 μM ANS, and 0 to 20 μM competitor in PBS containing 10% DMSO. Fluorescence measurements were made after a one hour incubation at 25° C.
# T1 sequence (Q03405 23-305 limits assumed, one chain of several): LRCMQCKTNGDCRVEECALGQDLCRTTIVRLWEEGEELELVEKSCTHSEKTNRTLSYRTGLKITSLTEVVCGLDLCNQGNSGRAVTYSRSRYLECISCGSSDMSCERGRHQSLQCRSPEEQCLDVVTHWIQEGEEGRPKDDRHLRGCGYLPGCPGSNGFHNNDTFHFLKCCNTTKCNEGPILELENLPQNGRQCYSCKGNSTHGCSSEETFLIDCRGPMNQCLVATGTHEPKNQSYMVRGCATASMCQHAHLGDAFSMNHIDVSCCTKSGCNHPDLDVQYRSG
# T3 sequence (Q03405 23-305 limits assumed): as the sequence (Q03405 23-305 limits assumed, one chain of several) above
# T5 sequence (Q03405 whole entry, looked up, the tested form may be a part): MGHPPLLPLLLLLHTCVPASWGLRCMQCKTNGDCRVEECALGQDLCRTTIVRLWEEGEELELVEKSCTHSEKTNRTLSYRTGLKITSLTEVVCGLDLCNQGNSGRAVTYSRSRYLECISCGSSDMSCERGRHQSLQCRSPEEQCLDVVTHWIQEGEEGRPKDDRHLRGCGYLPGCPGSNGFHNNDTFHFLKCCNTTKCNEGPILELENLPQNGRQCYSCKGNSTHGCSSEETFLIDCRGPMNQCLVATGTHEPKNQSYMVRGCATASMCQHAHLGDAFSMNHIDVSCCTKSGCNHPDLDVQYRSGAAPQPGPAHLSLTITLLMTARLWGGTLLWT
# T4 sequence (Q03405 115-335): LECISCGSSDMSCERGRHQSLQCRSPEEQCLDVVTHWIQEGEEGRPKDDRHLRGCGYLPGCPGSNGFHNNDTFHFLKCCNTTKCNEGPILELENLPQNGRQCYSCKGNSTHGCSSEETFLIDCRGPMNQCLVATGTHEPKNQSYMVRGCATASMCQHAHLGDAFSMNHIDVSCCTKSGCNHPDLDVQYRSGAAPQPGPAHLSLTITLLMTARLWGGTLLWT
# T2 sequence (Q03405 23-305, other chains not shown): as the sequence (Q03405 23-305 limits assumed, one chain of several) above
Substance,effect on binding of uPA1–48:uPAR complexes to vitronectin [1],competition for uPA1–48 binding to sUPAR / receptor binding activity (in words) [3],bacteriophage binding to immobilized D23 versus sUPAR [4],IC50 [5] [µM],further results
vitronectin: vitronectin purified from human plasma,blocked,,,,reduction of bacteriophage binding to the uPA1–48:suPAR complex [2]: 5–10 fold
"AE PMPHSLNFSQYAWYT [analog of clone 20 peptide, reference compound]",did not affect binding to vitronectin,greatly reduced receptor binding activity,,,
uPA13–32: amino acids 13–32 of human urokinase with Cys19 converted to Ala (CLNGGTAVSNKYFSNIHWCN) [reference compound],reduce binding,compete directly for uPA1–48 binding,bind signficantly only to intact sUPAR,,
H-AESTYHHLSLGYMYTLN-NH2 [compound 25],,,,> 10,
suPAR: soluble recombinant human urokinase receptor from baculovirus-infected Sf9 insect cells,,,,,adhesion of nontransfected 293 cells to fibronectin and collagen [6]: inhibited adhesion
"VEYRDAYSYPQYLSYLE [scrambled version of clone 7, same amino acids as clone 7, but in a different order, reference compound]",did not; also recorded: does not,,,,block of uPAR mediated adhesion of stimulated U937 cells to vitronectin [7]: no effect
AELDLSTFYDIQYLLRT-NH2 [peptide 18],blocks binding of complexes to vitronectin,greatly reduced competition for uPA1–48 binding,intermediate degree of binding to D23,10,effect on binding of uPA1–48:uPAR complexes to vitronectin ([1]; listed as clone 18): inhibit complex binding
CLNGGTAVSNKYFSNLHWC [13-32^4],,,,0.25,
H-AEPMPHSLNFSQYLWYT-NH2 [20^4],,,,0.01,
AEPVYQYELDSYLRSYY-NH2 [peptide 7],inhibits complex binding to vitronectin,greatly reduced competition for uPA1–48 binding,intermediate degree of binding to D23,10,effect on binding of uPA1–48:uPAR complexes to vitronectin ([1]; listed as clone 7): inhibit complex binding; block of uPAR mediated adhesion of stimulated U937 cells to vitronectin ([7]; listed as clone 7): effective blocker; block of uPAR mediated adhesion of stimulated U937 cells to vitronectin ([7]; listed as clone 7 peptide): could block; effect on ANS fluorescence enhancement in the presence of uPAR [8]: reduced fluorescence in a dose dependent manner; reduced binding to D23 versus suPAR [4]: about 50 fold

# — patent publication US7094752B2 (Chiron Corporation, priority 1997, dated 2006)
